PubChem BioAssay AID248 (DTP/NCI, 2004)
Several values for one entry are separate records, joined by “and”; a condition that tells them apart may be missing. Equal values may be shown once. Toxic doses and inconclusive results are not listed. Cut-off read from the data, not from the text of the source: active = T/C of 150% or more; inactive = T/C below 125%.

Tested on: L1210 leukemia ip in BDF1 mice, survival T/C
Test: NCI In Vivo Anticancer Drug Screen. Data for tumor model L1210 Leukemia (intraperitoneal) in B6D2F1 (BDF1) mice
Settings: endpoint: mean survival time, higher = longer survival
Outline: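 Tumor cells were implanted, animals were treated, and survival was followed. The result divides the treated measurement by the vehicle-control measurement.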

[1] = dose: 50.0 mg/kg/injection, schedule: Q01DX001 (ip), vehicle: saline
[2] = dose: 100.0 mg/kg/injection, schedule: Q01DX001 (ip), vehicle: saline
[3] = dose: 200.0 mg/kg/injection, schedule: Q01DX001 (ip), vehicle: saline
[4] = dose: 400.0 mg/kg/injection, schedule: Q01DX001 (ip), vehicle: saline
[5] = dose: 50.0 mg/kg/injection, schedule: Q01DX009 (ip), vehicle: Klucel (hydroxypropylcellulose) (HPC)
[6] = dose: 100.0 mg/kg/injection, schedule: Q04DX003 (ip), vehicle: Klucel (hydroxypropylcellulose) (HPC)
[7] = dose: 200.0 mg/kg/injection, schedule: Q04DX003 (ip), vehicle: Klucel (hydroxypropylcellulose) (HPC)
[8] = dose: 400.0 mg/kg/injection, schedule: Q04DX003 (ip), vehicle: Klucel (hydroxypropylcellulose) (HPC)
[9] = dose: 100.0 mg/kg/injection, schedule: Q04DX002 (ip), vehicle: saline with Tween-80
[10] = dose: 200.0 mg/kg/injection, schedule: Q04DX002 (ip), vehicle: saline with Tween-80
[11] = dose: 400.0 mg/kg/injection, schedule: Q04DX002 (ip), vehicle: saline with Tween-80
[12] = dose: 100.0 mg/kg/injection, schedule: Q04DX003 (ip), vehicle: saline with Tween-80
[13] = dose: 200.0 mg/kg/injection, schedule: Q04DX003 (ip), vehicle: saline with Tween-80

Measured: T/C

CC(=O)Nc1nncs1
inactive: dose: 7.0 mg/kg/injection, schedule: Q03HX032 (ip), vehicle: saline with Tween-80 105 % of control | dose: 11.0 mg/kg/injection, schedule: Q03HX032 (ip), vehicle: saline with Tween-80 108 % of control | dose: 16.0 mg/kg/injection, schedule: Q03HX032 (ip), vehicle: saline with Tween-80 107 % of control | dose: 24.0 mg/kg/injection, schedule: Q03HX032 (ip), vehicle: saline with Tween-80 101 % of control | dose: 27.0 mg/kg/injection, schedule: Q01DX015 (ip), vehicle: saline with Tween-80 109 % of control | dose: 31.0 mg/kg/injection, schedule: Q01DX015 (ip), vehicle: carboxymethylcellulose (CMC) 96 % of control | dose: 36.0 mg/kg/injection, schedule: Q03HX032 (ip), vehicle: saline with Tween-80 108 % of control | dose: 40.0 mg/kg/injection, schedule: Q01DX015 (ip), vehicle: saline with Tween-80 95 % of control | [1] 112 % of control | dose: 60.0 mg/kg/injection, schedule: Q01DX015 (ip), vehicle: saline with Tween-80 97 % of control | dose: 62.0 mg/kg/injection, schedule: Q01DX015 (ip), vehicle: carboxymethylcellulose (CMC) 102 % of control | dose: 90.0 mg/kg/injection, schedule: Q01DX015 (ip), vehicle: saline with Tween-80 101 % of control | [2] 115 % of control | dose: 135.0 mg/kg/injection, schedule: Q01DX015 (ip), vehicle: saline with Tween-80 95 % of control | [3] 112 % of control | dose: 248.0 mg/kg/injection, schedule: Q01DX015 (ip), vehicle: carboxymethylcellulose (CMC) 98 % of control | dose: 270.0 mg/kg/injection, schedule: Q01DX001 (ip), vehicle: saline with Tween-80 101 % of control | dose: 400.0 mg/kg/injection, schedule: Q01DX001 (ip), vehicle: saline with Tween-80 109 % of control | [4] 106 % of control | dose: 600.0 mg/kg/injection, schedule: Q01DX001 (ip), vehicle: saline with Tween-80 112 % of control | dose: 900.0 mg/kg/injection, schedule: Q01DX001 (ip), vehicle: saline with Tween-80 109 % of control | dose: 1350.0 mg/kg/injection, schedule: Q01DX001 (ip), vehicle: saline with Tween-80 120 % of control

CCC(=O)Nc1cccc2ccccc12
inactive: dose: 12.5 mg/kg/injection, schedule: Q01DX009 (ip), vehicle: Klucel (hydroxypropylcellulose) (HPC) 104 % of control | dose: 25.0 mg/kg/injection, schedule: Q01DX009 (ip), vehicle: Klucel (hydroxypropylcellulose) (HPC) 112 % of control | [5] 101 % of control and 89 % of control | [6] 95 % of control | [7] 106 % of control

c1ccc2c(c1)sc1cc3ccncc3cc12
inactive: dose: 75.0 mg/kg/injection, schedule: Q01DX001 (ip), vehicle: other 110 % of control | dose: 150.0 mg/kg/injection, schedule: Q01DX001 (ip), vehicle: other 101 % of control | dose: 300.0 mg/kg/injection, schedule: Q01DX001 (ip), vehicle: other 107 % of control

Brc1cc(Br)c(-c2c(Br)cc(Br)cc2Br)c(Br)c1
inactive: [5] 111 % of control | dose: 100.0 mg/kg/injection, schedule: Q01DX009 (ip), vehicle: Klucel (hydroxypropylcellulose) (HPC) 93 % of control | [6] 108 % of control | dose: 200.0 mg/kg/injection, schedule: Q01DX009 (ip), vehicle: Klucel (hydroxypropylcellulose) (HPC) 101 % of control | [7] 105 % of control | dose: 400.0 mg/kg/injection, schedule: Q01DX009 (ip), vehicle: Klucel (hydroxypropylcellulose) (HPC) 98 % of control | [8] 95 % of control

COc1cc(/C(C)=N\N(C)C)ccc1O
inactive: [1] 100 % of control | [2] 96 % of control | [3] 100 % of control | [4] 96 % of control

O=C(N/N=C/c1cccc([N+](=O)[O-])c1)c1ccc(Cl)c(Cl)c1
inactive: dose: 50.0 mg/kg/injection, schedule: Q01DX009 (ip), vehicle: saline with Tween-80 93 % of control | dose: 100.0 mg/kg/injection, schedule: Q01DX009 (ip), vehicle: saline with Tween-80 93 % of control | dose: 200.0 mg/kg/injection, schedule: Q01DX009 (ip), vehicle: saline with Tween-80 90 % of control

CC(C)N(CC#N)C(C)C
inactive: dose: 0.25 mg/kg/injection, schedule: Q01DX009 (ip), vehicle: saline with Tween-80 93 % of control | dose: 0.5 mg/kg/injection, schedule: Q01DX009 (ip), vehicle: saline with Tween-80 95 % of control

CCC1([N+](=O)[O-])COP(=O)(OC(=O)c2ccc([N+](=O)[O-])cc2)OC1 (stereo not given)
inactive: [2] 91 % of control | [3] 91 % of control | [4] 92 % of control

O=C(Nc1ccc(C(=O)O)c(O)c1)Oc1ccccc1
inactive: [6] 90 % of control | [7] 98 % of control | [8] 107 % of control

O=C1NC(c2ccccc2)(c2ccccc2)C(=O)N1CC1CO1 (stereo not given)
inactive: dose: 100.0 mg/kg/injection, schedule: Q01DX009 (ip), vehicle: saline 100 % of control | dose: 100.0 mg/kg/injection, schedule: Q04DX003 (ip), vehicle: saline 103 % of control | dose: 200.0 mg/kg/injection, schedule: Q01DX009 (ip), vehicle: saline 91 % of control | dose: 200.0 mg/kg/injection, schedule: Q04DX003 (ip), vehicle: saline 102 % of control | dose: 400.0 mg/kg/injection, schedule: Q01DX009 (ip), vehicle: saline 93 % of control | dose: 400.0 mg/kg/injection, schedule: Q04DX003 (ip), vehicle: saline 97 % of control

CCCCCCCCCCCCOP(=O)(OCC)OCC
inactive: [9] 88 % of control | [10] 88 % of control | [11] 88 % of control

Oc1ccc(Br)cc1-c1nc2cc3ccccc3cc2nc1-c1cc(Br)ccc1O
inactive: [2] 103 % of control | [3] 96 % of control | [4] 94 % of control

COc1ccc(C2(Br)C(=O)NN=C2C)cc1 (stereo not given)
inactive: [2] 95 % of control | [3] 100 % of control | [4] 95 % of control

CCCCCCCCCCCCOc1ccccc1OC
inactive: dose: 100.0 mg/kg/injection, schedule: Q01DX001 (ip), vehicle: Klucel (hydroxypropylcellulose) (HPC) 89 % of control | dose: 200.0 mg/kg/injection, schedule: Q01DX001 (ip), vehicle: Klucel (hydroxypropylcellulose) (HPC) 90 % of control | dose: 400.0 mg/kg/injection, schedule: Q01DX001 (ip), vehicle: Klucel (hydroxypropylcellulose) (HPC) 95 % of control

CC1(C)N=C(N)N=C(N)N1NC(=O)c1ccc(Cl)cc1
inactive: [12] 100 % of control | [13] 103 % of control

CC(O)(c1ccccc1)C(C(=O)O)c1ccccc1 (stereo not given)
inactive: [1] 103 % of control | [2] 103 % of control | [3] 103 % of control | [4] 97 % of control

CCCCCCCCC(=O)N1CCN(C(=O)CCCCCCCC)C1
inactive: dose: 30.0 mg/kg/injection, schedule: Q01DX001 (ip), vehicle: saline 96 % of control | [2] 96 % of control | dose: 300.0 mg/kg/injection, schedule: Q01DX001 (ip), vehicle: saline 91 % of control

O=C(O)c1ccc(CC2CC3CCC2C3)cc1 (stereo not given)
inactive: [12] 93 % of control | [13] 91 % of control | dose: 400.0 mg/kg/injection, schedule: Q04DX003 (ip), vehicle: saline with Tween-80 88 % of control

S=P(c1ccccc1)(c1ccccc1)C(P(c1ccccc1)c1ccccc1)P(c1ccccc1)c1ccccc1
inactive: [9] 97 % of control | [10] 100 % of control | [11] 97 % of control
